Laboratory results: patent publication US20220000871A1, “METHODS AND COMPOSITIONS FOR TREATING NEURODEGENERATIVE DISEASES USING MODULATORS OF PHOSPHOGLYCERATE KINASE 1 (PGK1) ACTIVITY” (UNIVERSITY OF IOWA RESEARCH FOUNDATION, priority 2019, published 2022)

System: mThyl-hSNCA transgenic mice
Experiment: mThyl-hSNCA transgenic mice
Assay type: in vivo, mouse
Conditions: TZ 0.03 mg/kg oral from 3 to 15 months old
Text: FIG. 5. TZ improves TH levels and motor performance in genetic models of PD. A-E) Wild-type (w^1118) and PINK1^5 flies received TZ or vehicle for 10 days beginning on the first day after eclosion. Day 10 assays included: (A) Example of wing posture defect and percentage of w^1118 and PINK1^5 flies with wing posture defects. N=6, with 80 flies for each treatment in each trial. (B,C) Example of TH western blot (B) and quantification of TH (C). N=5, with 40 fly heads for each treatment in each trial. (D) ATP content in brains (relative to w^1118). N=3, with 200 fly heads for each treatment in each trial. (E) Climbing behavior. N=3, with 100 flies for each treatment in each trial. F) Climbing behavior of LRRK^ex1 male flies. N=6, with 100 flies for each treatment in each trial. […] (I,J) Quantification of α-synuclein in striatum and SNc. […]
The rotarod test was carried out using an automated rotarod (E103, UGO BASILE). […] The latency to fall was recorded for a maximum recording time of 600 seconds. The behavior was monitored by a video camera.
This test was carried out by leaving a pole in the cage where the mice were housed. […] The time that the mouse took to turn his head from upward to downward (Time: Turn) and the time the mouse took to reach the floor with his forepaws (Time: Locomotion Activity) were recorded. Each mouse was tested three times with 5 min. intervals, and the average time was quantified. […]

Structure (SMILES): COc1cc2nc(N3CCN(C(=O)C4CCCO4)CC3)nc(N)c2cc1OC (stereo not shown) [TZ, terazosin]
- human α-synuclein in striatum and SNc and motor performance on rotarod and pole test: partially prevented
